Measurements published in US20190309309A1, “BACTERIAL CELLS WITH IMPROVED TOLERANCE TO POLYOLS” (DANMARKS TEKNISKE UNIVERSITET, priority 2016, published 2019).
Entries after “also recorded” stand apart in the source; their conditions may differ. Like-named read-outs stand apart in the source and are kept apart here.

Tests used:
[1] = tested on: Escherichia coli K-12 MG1655; test: Screening for tolerance in wild-type cells: growth in varying concentrations of diols (Biolector); format: cell-based; conditions: for growth observed at maximum concentration / Maximum concentration for robust growth: K-12 MG1655; for toxicity threshold: E. coli
E. coli K-12 MG1655 = format: cell-based
K-12 MG1655 = format: cell-based, Escherichia coli
[2] = growth rate of K-12 MG1655, diol 0.5% (v/v), M9+1% glucose, 37° C.
[3] = growth rate of K-12 MG1655, diol 1% (v/v)
[4] = growth rate of K-12 MG1655, diol 2% (v/v)
[5] = growth rate of K-12 MG1655, diol 3.5% (v/v)
[6] = growth rate of K-12 MG1655, diol 5% (v/v)
[7] = growth rate of K-12 MG1655, diol 7.5% (v/v)
[8] = growth rate of K-12 MG1655, diol 10% (v/v)
[9] = lag time of K-12 MG1655, diol 0.5% (v/v)
[10] = lag time of K-12 MG1655, diol 1% (v/v)
[11] = lag time of K-12 MG1655, diol 2% (v/v)
[12] = lag time of K-12 MG1655, diol 3.5% (v/v)
[13] = lag time of K-12 MG1655, diol 5% (v/v)
[14] = K-12 MG1655, diol 1 % (v/v), Growth Profiler
[15] = K-12 MG1655, diol 2 % (v/v), Growth Profiler
[16] = K-12 MG1655, diol 3 % (v/v), Growth Profiler
[17] = K-12 MG1655, diol 4 % (v/v), Growth Profiler
[18] = K-12 MG1655, diol 5 % (v/v), Growth Profiler
[19] = K-12 MG1655, diol 6 % (v/v), Growth Profiler
[20] = K-12 MG1655, diol 7.5 % (v/v), Growth Profiler

Question: For `CCCC(O)CO` (centres unmarked) [1,2-pentanediol], which “growth observed at maximum concentration” value [1] is on record?
Answer: 1%

Question: What about the “μ, mean” value [1, 2] of the same compound?
Answer: 0.524 h⁻¹

Question: And the “μ, mean” value [1, 3]?
Answer: 0.346 h⁻¹

Question: And the “μ, mean” value [1, 4]?
Answer: 0.000 h⁻¹

Question: And the “μ, mean” value [1, 5]?
Answer: 0.000 h⁻¹

Question: What about the “μ, mean” value [1, 6] of the same compound?
Answer: 0.000 h⁻¹

Question: And the “μ, mean” value [1, 7]?
Answer: 0.000 h⁻¹

Question: What about the “μ, mean” value [1, 8] of the same compound?
Answer: 0.000 h⁻¹

Question: And the “tlag, mean” value [1, 9]?
Answer: 0.4 h

Question: And the “tlag, mean” value [1, 10]?
Answer: 1.3 h

Question: What does the source list for `CC(O)CO` (centres unmarked) [1,2-propanediol]?
Answer: Maximum concentration for robust growth [1]: 7.5%; μ, mean [1, 2]: 0.701 h⁻¹; μ, mean [1, 3]: 0.662 h⁻¹; μ, mean [1, 4]: 0.595 h⁻¹; μ, mean [1, 5]: 0.442 h⁻¹; μ, mean [1, 6]: 0.406 h⁻¹; μ, mean [1, 7]: 0.579 h⁻¹; μ, mean [1, 8]: 0.000 h⁻¹; tlag, mean [1, 9]: 0.9 h; tlag, mean [1, 10]: 0.8 h; tlag, mean [1, 11]: 0.8 h; tlag, mean [1, 12]: 0.5 h; tlag, mean [1, 13]: 2.3 h; tlag, mean ([1]; lag time of K-12 MG1655, diol 7.5% (v/v)): 8.3 h

Question: For `OCCCO` [1,3-propanediol], which “tlag, mean” value (E. coli K-12 MG1655; [14]) is on record?
Answer: 5.3 h

Question: What about the “μ, mean” value (E. coli K-12 MG1655; [14]) of the same compound?
Answer: 0.670 h⁻¹

Question: What about the “tlag, mean” value (E. coli K-12 MG1655; [15]) of the same compound?
Answer: 6.1 h

Question: What about the “μ, mean” value (E. coli K-12 MG1655; [15]) of the same compound?
Answer: 0.686 h⁻¹

Question: And the “tlag, mean” value (E. coli K-12 MG1655; [16])?
Answer: 7.3 h

Question: What about the “μ, mean” value (E. coli K-12 MG1655; [16]) of the same compound?
Answer: 0.603 h⁻¹

Question: And the “tlag, mean” value (E. coli K-12 MG1655; [17])?
Answer: 9.6 h

Question: What about the “μ, mean” value (E. coli K-12 MG1655; [17]) of the same compound?
Answer: 0.463 h⁻¹

Question: What about the “tlag, mean” value (E. coli K-12 MG1655; [18]) of the same compound?
Answer: 12.5 h

Question: And the “μ, mean” value (E. coli K-12 MG1655; [18])?
Answer: 0.277 h⁻¹

Question: And the “tlag, mean” value (E. coli K-12 MG1655; [19])?
Answer: 14.7 h

Question: And the “μ, mean” value (E. coli K-12 MG1655; [19])?
Answer: 0.201 h⁻¹

Question: And the “tlag, mean” value (E. coli K-12 MG1655; [20])?
Answer: 24.9 h

Question: And the “μ, mean” value (E. coli K-12 MG1655; [20])?
Answer: 0.118 h⁻¹

Question: And the “growth inhibition of E. coli K-12 MG1655 (in words)” value (E. coli K-12 MG1655; variable concentrations, Growth Profiler)?
Answer: elicited growth inhibition

Question: `OCCCCO` [1,4-butanediol] was tested. Which “growth inhibition of E. coli K-12 MG1655 (in words)” value (E. coli K-12 MG1655) did it give?
Answer: elicited growth inhibition

Question: With `OCCCCCO` [1,5-pentanediol] as the compound, how does the “growth observed at maximum concentration” value [1] read?
Answer: 3.5%

Question: What about the “μ, mean” value [1, 2] of the same compound?
Answer: 0.613 h⁻¹

Question: What about the “μ, mean” value [1, 3] of the same compound?
Answer: 0.569 h⁻¹

Question: What about the “μ, mean” value [1, 4] of the same compound?
Answer: 0.437 h⁻¹

Question: And the “μ, mean” value [1, 5]?
Answer: 0.158 h⁻¹

Question: And the “μ, mean” value [1, 6]?
Answer: 0.000 h⁻¹

Question: And the “μ, mean” value [1, 7]?
Answer: 0.000 h⁻¹

Question: And the “μ, mean” value [1, 8]?
Answer: 0.000 h⁻¹

Question: And the “tlag, mean” value [1, 9]?
Answer: 0.3 h

Question: What about the “tlag, mean” value [1, 10] of the same compound?
Answer: 0.5 h

Question: And the “tlag, mean” value [1, 11]?
Answer: 0.9 h

Question: And the “tlag, mean” value [1, 12]?
Answer: -8.8 h

Question: With `CC(O)C(C)O` (centres unmarked) [2,3-butanediol] as the compound, how does the toxicity threshold [1] read?
Answer: 7.5 % (v/v)

Question: What about the toxicity threshold ([1]; conversion of 7.5% (v/v)) of the same compound?
Answer: 74.0 g/L

Question: And the “Maximum concentration for robust growth” value [1]?
Answer: 5%

Question: What about the “μ, mean” value [1, 2] of the same compound?
Answer: 0.944 h⁻¹

Question: And the “μ, mean” value [1, 3]?
Answer: 0.791 h⁻¹

Question: What about the “μ, mean” value [1, 4] of the same compound?
Answer: 0.754 h⁻¹

Question: What about the “μ, mean” value [1, 5] of the same compound?
Answer: 0.498 h⁻¹

Question: And the “μ, mean” value [1, 6]?
Answer: 0.265 h⁻¹

Question: What about the “μ, mean” value [1, 7] of the same compound?
Answer: 0.054 h⁻¹

Question: And the “μ, mean” value [1, 8]?
Answer: 0.000 h⁻¹

Question: What about the “tlag, mean” value [1, 9] of the same compound?
Answer: 2.2 h

Question: And the “tlag, mean” value [1, 10]?
Answer: 1.8 h

Question: What about the “tlag, mean” value [1, 11] of the same compound?
Answer: 2.1 h

Question: And the “tlag, mean” value [1, 12]?
Answer: 1.6 h

Question: What about the “tlag, mean” value [1, 13] of the same compound?
Answer: -1.2 h

Question: Which results are given for `CSCC[C@H](N)C(=O)O` [methionine, L-methionine]?
Answer: effect on growth of K-12 MG1655 in 2,3-butanediol (K-12 MG1655): significantly restored; effect on growth of evolved strains in 1,2-propanediol (K-12 MG1655): did not have a significantly enhanced growth rate; also recorded: minimal effect; effect on growth of the wild-type strain in 1,2-propanediol (K-12 MG1655): significantly restored; also recorded: restore growth of the wild-type strain; effect on growth rate of evolved strains in 2,3-butanediol (K-12 MG1655): did not have a significantly enhanced growth rate increase
